Consider two substances from patent US4994554A, “Probursin” (Immunobiology Research Institute, Inc., priority 1988, dated 1991).

For one experiment, the system named is Daudi cells. Briefly: Cyclic GMP assay in Daudi cells. The note with it: 0 to 1000 micrograms/ml, FIG. 5A. It counts as cell-based. How it is done:
Daudi cells were freshly seeded and grown for 2 days with harvesting as described in T. Audhya et al, Arch. Biochem Biophys., 234:167-177 (1984). The cells were washed 3 times in PBS and resuspended in RPMI 1640 at a concentration of 1.0×10^7 cells/ml and were allowed to equilibrate at 37° C. for 30 minutes before the addition of the test compounds (25 ul) of bursin and probursin, and control peptides porcine insulin (A), equine myoglobin (B) and bovine growth hormone (C). The incubation was allowed to proceed in a shaking water bath for 4-5 minutes and was then terminated by addition of 1 ml ice-cold TCA (10%).
The cells in TCA were homogenized and sonicated to release cyclic nucleotide. The suspension was centrifuged at 3000×g for 20 minutes at 4° C. The resulting precipitate was dissolved in 0.1 N NaOH to determine the protein content. TCA was removed from the supernatant fraction by extracting 4 times with 5 ml of water-saturated diethyl ether. […]
Dose-response curves from 0 to 1000 micrograms/ml were evaluated for bursin, probursin and controls. […] A threshold activity was determined for each peptide tested. […] Test results were considered positive if the level of cyclic GMP was greater than 1.52 times (2 standard deviations) that determined for the parallel negative control.

The test system of experiment [1] is SV40 transformed hamster beta cells (HIT). Kind of experiment: Growth hormone inhibition: GRF-stimulated 3H inositol phosphate (IP) release and growth hormone (GH) accumulation, RIA of supernatant. It counts as cell-based. To be noted: for [GH] / [IP]: 15 min. The method, then:
An assay was performed to study the effect of probursin in combination with growth hormone releasing factor (GRF) as this combination effects the release of ^3 H inositol phosphate (IP) and growth hormone (GH) accummulation in SV40 transformed hamster beta cells (HIT). The experiment was performed according to the procedures described in M. J. Berridge et al, cited above.
Briefly described, commercially available HIT cells were incubated at 37° C. for 1 hour in metabolic RPMI medium with 5% fetal calf serum (FCS). GRF in varying concentrations indicated in the Table below was added to the cell culture and incubated for 15 minutes at 37° C. The cells were then centrifuged at 800 rpm and the supernatant collected. Levels of GH and IP were measured in the supernatant by radioimmunoassay (RIA) also according to Berridge et al. These measurements formed the GRF control.
The same procedure was followed without the addition of GRF and is indicated below as the control.
Similarly, to indicate the effect of probursin on GRF, the procedure above was followed except that GRF and probursin at the appropriate concentrations indicated in the Table below were added to the cells together and followed by 15 minutes incubation and centrifugation. When the supernatant was measured by RIA as described above, the resulting concentrations of IP and GH were determined as illustrated in the Table below.

The next experiment concerns Anti-bursin antiserum. Kind of experiment: ELISA blocking of anti-bursin antiserum binding by absorbants. Details: species or system rabbit. To be noted: FIG. 3B. The method, then:
Antisera were tested for activity in the following ELISA protocol. The assays were performed according to the method of Voller et al, Bull. WHO, 53:55 (1976). Briefly, polyvinyl chloride microtiter plates (Fisher Scientific, Springfield, N.J.) were coated overnight with 100 ul/well of 10 ug/ml solution of tetramer of probursin in 0.1 M phosphate buffer, pH 7.2. Plates were washed and were postcoated with 150 ul/well of 0.5 percent bovine serum albumin in PBS, pH 7.2, for one hour at room temperature. Plates were washed, dried at 37° C. for 6-24 hours and sealed in dessicated packages and stored at 4° C.
Antisera to be tested were diluted in PBS containing 0.05 percent Tween 20. One hundred ul of the diluted sera were added per well in triplicates. Normal rabbit or mouse serum was used as the negative control. After 60 minutes of incubation at room temperature the plates were washed three times with PBS Tween-20. One hundred ul of alkaline phosphatase conjugated to affinity-purified goat anti-rabbit IgG (heavy and light chains) diluted 1:2000 in PBS Tween-20 were added to each well. The plates were incubated at room temperature for 60 minutes. […] After 30 minutes of incubation at room temperature the reaction was terminated with the addition of 50 ul/well of 5 N NaOH and the optical density was read at 410 nm. […]

A further experiment has as its system MOPC-315 cells. Briefly: Cyclic GMP assay in MOPC-315 cells. It counts as cell-based. The note with it: 0 to 1000 micrograms/ml, FIG. 5B.
Where [2] appears, read: GRF (0.1 nM) + Probursin (.1 μM).
The mark [3] stands for this setting: GRF (1 nM) + Probursin (0.1 μM).
The mark [4] stands for this setting: GRF (1 nM) + Probursin (1.0 μM).
Where [5] appears, read: GRF (10 nM) + Probursin (10.0 μM).
Where [6] appears, read: GRF 0.1 nM alone, HIT cell supernatant.
Where [7] appears, read: GRF 1 nM alone, HIT cell supernatant.
[8] abbreviates: GRF 10 nM alone, HIT cell supernatant.

Where no end group is shown, it is not given here.

Take “FFWKTKPRKHGGRR [Probursin, Phe-Phe-Trp-Lys-Thr-Lys-Pro-Arg-Lys-His-Gly-Gly-Arg-Arg]”: the “induction of intracellular cyclic GMP (dose-response)” value in the experiment on Daudi cells and in the experiment with MOPC-315 cells was “active” throughout. In addition, the “[GH]” value is listed as 35 ± 4 n/ml in experiment [1] (setting [2]), 480 ± 31 n/ml in experiment [1] (setting [3]), 77 ± 6 n/ml in experiment [1] (setting [4]) and 29 ± 3 n/ml in experiment [1] (setting [5]). In addition, the “[IP]” value in experiment [1] (setting [2]) is recorded as 239 ± 13 cpm; in experiment [1] (setting [3]), 1911 ± 310 cpm; in experiment [1] (setting [4]), 444 ± 22 cpm; in experiment [1] (setting [5]), 382 ± 16 cpm. In addition, the “effect on growth hormone releasing factor action (IP and GH)” value in experiment [1] (HIT cells, summary in words) is on record as “marked suppression”. Further, the “release of growth hormone” value in experiment [1] (summary in words, refers to Example 6) is recorded as “inhibit”. The “blocking of anti-bursin antiserum binding” value in the experiment with Anti-bursin antiserum is “blocked”.

Consider “GRF: growth hormone releasing factor, stimulus in HIT cell assay (YADAIFTNSYRKVLGQLSARKLLQDIMSRQQGESNQERGARARL; ends and bridges not checked; UniProt P01286 32-75, looked up) [reference compound]”, for which the “[GH]” value in experiment [1] (setting [6]) stood at 162 ± 4 n/ml; in experiment [1] (setting [7]), 648 ± 26 n/ml; in experiment [1] (setting [8]), 1162 ± 84 n/ml. The “[IP]” value in experiment [1] (setting [6]) is listed as 489 ± 19 cpm; in experiment [1] (setting [7]), 2810 ± 290 cpm; in experiment [1] (setting [8]), 8962 ± 821 cpm.
